In test [1] the test system is Myzus persicae. The experiment in a line: Antifeedant activity against apterous adult Myzus persicae (green peach aphid) fed on compound treated bell pepper assessed as settling on leaf by choice feeding assay (reference value: 52 to 70%). It counts as functional.
Test [2] has as its system Spodoptera littoralis. The experiment in a line: Antifeedant activity against […] Spodoptera littoralis fed on compound treated artificial diet by choice feeding assay. The format is functional, organism-based.
The subject of test [3] is Spodoptera littoralis. Briefly: Antifeedant activity against Spodoptera littoralis fed on compound treated artificial diet assessed as larval weight gain by choice feeding assay relative to control. The format is functional.
The subject of test [4] is Spodoptera littoralis. The experiment in a line: Antifeedant activity against Spodoptera littoralis fed on compound treated artificial diet assessed as food ingested by choice feeding assay relative to control. The format is functional.
The test system of test [5] is Leptinotarsa decemlineata. Briefly: Antifeedant activity against adult Leptinotarsa decemlineata fed on compound treated potato foliage by choice feeding assay. The format is functional, organism-based.

Where only a bound is given, the exact number is not on record here.

For `CC12CCC(CC1=O)C2(C)C` (stereo not given) [CAMPHOR], the Activity in test [1] is 40%; in test [3] it was 97%; in test [4], 83%. In addition, the EC50 in test [2] and in test [5] was more than 50 microg/cm2 throughout.
As for `C=C1C(=O)C(C)=C(C)C1(C)C`, the Activity in test [1] is reported as 48%; in test [3] it was 87%; in test [4], 88%. The EC50 in test [2] and in test [5] was more than 50 microg/cm2 each time.
As to `CC12CCC(C1)C(C)(C)C2=O` (stereo not given) [FENCHONE], the figures for the Activity in test [1], in test [3] and in test [4] were 30%, 100% and 91%, respectively. The EC50 in test [2] and in test [5] was more than 50 microg/cm2 in each case.
Turning to `CC12CCC(CC1)C(C)(C)O2` [EUCALYPTOL], the values for the Activity in test [1], in test [3] and in test [4] were 37%, 96% and 95%, respectively. The EC50 in test [2] and in test [5] was more than 50 microg/cm2 throughout.
